Consider 11 compounds from patent EP0115690A1, “Dibenzocycloheptenylidenes” (AMERICAN HOME PRODUCTS CORPORATION, priority 1983, dated 1984).

Test [1] concerns adjuvant arthritis (left paw edema). Briefly: rat adjuvant arthritis (daily dosing) assay. It is filed as in vivo, Sprague-Dawley rats. The conditions noted are these: for % Change of Left Paw Edema at Day 16: daily regimen; for ED50: Rattus norvegicus, po, 384 h, read-out: estimated ED50. On the procedure: The ability of the compounds of the invention to inhibit immunologic-induced (chronic) inflammation is tested in adjuvant arthritis (daily dosing) assay.
Polyarthritis is induced in groups of 6-10 Sprague-Dawley rats weighing between 180-220 g. by a subcutaneous injection into the right paw of dessicated Mycobacterium butyricum or tuberculosis (0.5 mg/0.1 ml) suspended in light mineral oil. Compounds of the invention, aspirin and indomethacin are administered orally in 0.5% methylcellulose using a daily regimen (except for weekends). Both hind paw volumes (ml.) are measured by mercury plethysmograph on day 0 or at the time of injection of the complete adjuvant. Increases in paw volume (viz. edema) are determined for the left paw on day 16. Statistical analysis of differences in paw edemas is performed by using the unpaired, Student's t-test.

Test [2] has as its system carrageenan paw edema. Nature of the test: rat carrageenan edema test (hind paw). Format: in vivo, male Sprague-Dawley rats. The conditions noted are these: for % Change From Control: paw edema 3 hours after carrageenan; for ED50: Rattus norvegicus, po, 3 h, read-out: dose exhibiting a 50% inhibition of edema. On the procedure:
Groups of 6-8 male Sprague-Dawley rats weighing between 150-200 grams are used. Compounds of the invention, aspirin and indomethacin are administered orally in 0.5% methylcellulose. Vehicle alone is administered as a control. Sixty minutes after drug administration edema is induced by injection of 0.1 ml. of a 1% carrageenan solution in saline into the subplantar tissue of the rat's right hind paw. Two minutes later, paw volume is measured volumetrically with a plethysmograph and again 3 hours later. The mean volume of swelling for the control group is calculated and compared to the test groups. Percent change in paw edema is calculated and analysed statistically (unpaired, Student's t-test).

Test [3] can be described thus: anti-inflammatory activity, comparison of isomers (test not specified). It is filed as in vivo. The note with it: E-isomer versus Z-isomer.

Consider `O=C(O)/C=C1\c2ccccc2C=Cc2cc(Cl)ccc21` [Example 2H], for which the “% Change of Left Paw Edema at Day 16” value in test [1] (oral dose 25 mg/kg) is reported as -59%. In addition, the “% Change From Control” value in test [2] (oral dose 200 mg/kg) is on record as -49%.

As for `O=C(O)/C=C1/c2ccccc2C=Cc2cc(Cl)ccc21` [Example 2G], the “% Change From Control” value in test [2] (oral dose 200 mg/kg) was about -38%.

Regarding `COc1ccc2c(c1)C(=CC(=O)O)c1ccccc1C=C2` [Example 4F, (3-Methoxy-5H-dibenzo[a,d]cyclohepten-5-ylidene)acetic acid], the “% Change of Left Paw Edema at Day 16” value in test [1] (oral dose 15 mg/kg) is on record as -50%. Moreover, the “% Change From Control” value in test [2] (oral dose >200 mg/kg) was -50%.

On to `CC(=O)Oc1ccccc1C(=O)O` [aspirin, reference compound], for which the ED50 in test [1] was about 140 mg/kg; in test [2] it was about 250 mg/kg.

Turning to `O=C(O)C(Cl)=C1c2ccccc2C=Cc2ccccc21` [Example 6E], in test [2] (oral dose 200 mg/kg), the “% Change From Control” value is -31%.

For `O=C(O)C=C1c2ccccc2C=C(Br)c2ccccc21` [Example 8, E- and Z-(10-bromo-5H-dibenzo[a,d]cyclohepten-5-ylidene) acetic acid], the “% Change of Left Paw Edema at Day 16” value in test [1] (oral dose 25-50 mg/kg) is reported as -25 to -50%. Besides, the “% Change From Control” value in test [2] (oral dose 200 mg/kg) was -34%.

As to `O=C(O)/C=C1/c2ccccc2C=Cc2ccc(Cl)cc21` [Example 1G, Z-(3-Chloro-5H-dibenzo[a,d]cyclohepten-5-ylidene) acetic acid], the “% Change of Left Paw Edema at Day 16” value in test [1] (oral dose 25 mg/kg) was -28%. The “% Change From Control” value in test [2] (oral dose 100-200 mg/kg) is -20%.

Turning to `O=C(O)/C=C1\c2ccccc2C=Cc2ccc(Cl)cc21` [Example 1H], the “% Change of Left Paw Edema at Day 16” value in test [1] (oral dose 25 mg/kg) is recorded as -59%. Further, the “anti-inflammatory activity relative to its Z-isomer” value in test [3] is “several times more active”. For the same compound, in test [2], the “oral doses that inhibit carrageenan paw edema” value was in the range of 20 to 200 mg/kg. The “% Change From Control” value was -33% in test [2] (oral dose 20 mg/kg), -53% in test [2] (oral dose 60 mg/kg) and -68% in test [2] (oral dose 180 mg/kg).

With `C1=Cc2ccccc2C(=Cc2nnn[nH]2)c2ccccc21` [Example 7B, 5-(5H-Dibenzo[a,d]cyclohepten-5-ylidenemethyl) 1H-tetrazole], the “% Change From Control” value in test [2] (oral dose 200 mg/kg) is given as about -38%.

With `COc1ccc2c(c1)c(CC(=O)O)c(C)n2C(=O)c1ccc(Cl)cc1` [Indomethacin, reference compound], the ED50 in test [1] was 0.9 mg/kg; in test [2] it was about 5.6 mg/kg.

In the case of `O=C(O)C=C1c2ccccc2C=Cc2ccc(F)cc21` [Example 9], the “% Change of Left Paw Edema at Day 16” value in test [1] (oral dose 100-200 mg/kg) was -40%. In addition, the “oral doses that inhibit carrageenan paw edema” value in test [2] was in the range of 20 to 200 mg/kg. Besides, in test [2] (oral dose 200 mg/kg), the “% Change From Control” value was -58%.
